Reference: patent publication US20230183228A1, “SUBSTITUTED PYRAZOLYL COMPOUNDS AND METHODS OF USE THEREOF” (Chinook Therapeutics Canada, Inc., priority 2020, published 2023)
Marks after values point to notes of the source that are not given here.

Assays:
[1] = Liver and plasma concentrations in c57/bl6 mice; type: in vivo; details: 20 mg/kg PO
Protocol: [The procedure below names another organism; the source says it served here with some conditions changed.] (§1) Plasma and liver (target organ) concentrations of test compounds were determined in rats following a single per os (PO) administration of the test compounds. Male Sprague Dawley rats (6-8 weeks of age, Charles River Labs) were fasted overnight and a single dose of test compounds (10 mg/kg; as a suspension in 0.5% methyl cellulose) was administered by PO gavage. Rats were then sacrificed at 4 and 24 h after administration of the test compounds, and plasma and liver tissue samples were collected. Liver tissue samples were homogenized in 5 volumes of water:acetonitrile (50/50; v/v) mixture using a bead mill homogenizer. Plasma and liver homogenate samples were processed by protein precipitation using acetonitrile and the concentrations of the test compounds were determined by liquid chromatography-tandem mass spectrometry (SciEx triple quad 5500+ with Exion UPLC).
(§2) Liver and plasma exposures at the 4 h and 24 h timepoints for the various compounds are described in Table 5 below. Measured compound concentrations are as follows: ++++>10 μM; 10 μM≥+++>5 μM; 5 μM≥++>1 μM; 1 μM≥+>0.25 μM; and 0.25 μM≥−.

[2] = system: fresh primary mouse hepatocytes; assay: Primary mouse hepatocyte assay (lactate production); type: cell-based
Protocol: Compounds were evaluated in an ex vivo assay consisting of fresh primary mouse hepatocytes. Hepatocytes were isolated from wild type mice (C57BL/6NCrl from Charles River Labs) using a two-step collagenase perfusion technique which involves a sequential perfusion of anesthetized mice with Hanks' balanced salt solution and collagenase. Following isolation, viable wild type hepatocytes (0.1 M cells/well) were incubated with test compound in presence of pyruvate and compound potency was evaluated by measuring the lactate produced by the cells using liquid chromatography coupled to mass spectrometry. Chromatographic separation was achieved on an XDB-C18 4.6×50 mm column (Agilent, Cat #927975-902) at a flow rate of 1 mL/min Mobile phase A consisted of 0.1% formic acid in water and mobile phase B consisted of acetonitrile. A gradient program was initiated starting at 5% B which was held for 1 minutes, then ramped from 5% to 95% B over 1 minute. After holding at 95% B for 1 minute, the program changed back to 5% B. The column was equilibrated with 5% B for […] before the next injection. The mass spectrometer was operated in negative mode with electrospray ionization. The following transition along with their collision energy (CE) were used: 89→43 (CE: −16 V) for lactate and 92→45 (CE: −16 V) for ^13C3-Lactate (internal standard).

[3] = molecular target: T1, human recombinant C-terminal His-tagged LDHA (Homo sapiens, UniProt P00338); assay: Human LDHA enzyme assay; type: biochemical; details: 50 μM pyruvate, 50 μM NADH, no HSA
T1 construct: His (C)
Protocol: (§3) Compounds were dissolved in DMSO and preincubated with human recombinant C-terminal His-tagged LDHA (0.070 μg/mL) for 10 min at room temperature in assay buffer consisting 50 mM Tris, pH 7.5 and 100 mM NaCl in black walled, clear bottom, non-binding 96-well plates. Equal volumes of substrate solution containing 100 μM of pyruvate and 100 μM of NADH in assay buffer was added to each well (final concentration 0.035 μg/mL enzyme, 50 μM pyruvate, 50 μM NADH, and 1% DMSO). For human serum albumin (HSA) shift assay, the compounds were preincubated with the enzyme in assay buffer containing 20% HSA before substrate addition (final concentration 10% HSA). The reaction was monitored at 340 nm on a plate reader (Molecular Devices) in kinetic mode for 15 min. The rate of the reaction was determined by plotting absorbance vs time.

[4] = molecular target: T1, human recombinant C-terminal His-tagged LDHA; assay: Human LDHA enzyme assay, human serum albumin (HSA) shift; type: biochemical; details: final concentration 10% HSA
Protocol: as §3

[5] = Liver-targeted tissue distribution profile study in rats; type: in vivo, Sprague Dawley rats; details: rat, single 10 mg/kg PO
Protocol: as §1, §2

[6] = Run at 0.4M cells/well concentration of hepatocytes

SMILES	Measured Compound Concentrations Liver - 4 h ([1]; liver)	Measured Compound Concentrations Plasma - 4 h ([1]; plasma)	IC50 [2, 6] [µM]	IC50 [3] [µM]	IC50 [4] [µM]	Measured Compound Concentrations Liver - 4 h [5]	Measured Compound Concentrations Liver - 24 h [5]	Measured Compound Concentrations Plasma - 4 h [5]	Measured Compound Concentrations Plasma - 24 h [5]	Measured Compound Concentrations Liver - 24 h ([1]; liver, 24 h)	Measured Compound Concentrations Plasma - 24 h ([1]; plasma, 24 h)	IC50 ([2]; 0.1 M cells/well) [µM]
NS(=O)(=O)c1ccc(Cc2c(-c3ccc(F)cc3)nn(-c3nc(C(=O)O)cs3)c2CCC2CC2)cc1 [Example 6, 2-(5-(2-cyclopropylethyl)-3-(4-fluorophenyl)-4-(4-sulfamoylbenzyl)-1H-pyrazol-1-yl)thiazole-4-carboxylic acid]	++* (5 μM≥++>1 μM)	−* (0.25 μM≥−)	0.25 to 1	< 0.001	0.01 to 0.1							
NS(=O)(=O)c1ccc(Cc2c(-c3ccc(F)cc3)nn(-c3nc(C(=O)O)co3)c2CC2CC2)cc1F [Example 9, 2-(5-(Cyclopropylmethyl)-4-(3-fluoro-4-sulfamoylbenzyl)-3-(4-fluorophenyl)-1H-pyrazol-1-yl)oxazole-4-carboxylic acid]			0.1 to 0.25	< 0.001	0.001 to 0.01	++ (5 μM≥++>1 μM)	− (0.25 μM≥−)	− (0.25 μM≥−)	− (0.25 μM≥−)			
NS(=O)(=O)c1ccc(Cc2c(-c3ccc(F)cc3)nn(-c3nc(C(=O)O)cs3)c2CC2CC2)cc1 [Example 5, 2-(5-(cyclopropylmethyl)-3-(4-fluorophenyl)-4-(4-sulfamoylbenzyl)-1H-pyrazol-1-yl)thiazole-4-carboxylic acid]	++* (5 μM≥++>1 μM)	−* (0.25 μM≥−)	0.25 to 1	< 0.001	0.001 to 0.01							
NS(=O)(=O)c1ccc(Cc2c(-c3ccc(F)cc3)nn(-c3nc(C(=O)O)cs3)c2CC2CC2)cc1Cl [Example 10, 2-(4-(3-Chloro-4-sulfamoylbenzyl)-5-(cyclopropylmethyl)-3-(4-fluorophenyl)-1H-pyrazol-1-yl)thiazole-4-carboxylic acid]	+++* (10 μM≥+++>5 μM)	−* (0.25 μM≥−)		< 0.001	0.01 to 0.1					−* (0.25 μM≥−)	−* (0.25 μM≥−)	0.1 to 0.25
N#Cc1cccc(-c2nn(-c3nc(C(=O)O)cs3)c(CC3CC3)c2Cc2ccc(S(N)(=O)=O)c(F)c2)c1 [Example 11, 2-(3-(3-cyanophenyl)-5-(cyclopropylmethyl)-4-(3-fluoro-4-sulfamoylbenzyl)-1H-pyrazol-1-yl)thiazole-4-carboxylic acid]				< 0.001	0.001 to 0.01	+++ (10 μM≥+++>5 μM)	− (0.25 μM≥−)	− (0.25 μM≥−)	− (0.25 μM≥−)			< 0.1
CCc1c(Cc2ccc(S(N)(=O)=O)cc2)c(-c2ccc(F)cc2)nn1-c1nc(C(=O)O)cs1 [Example 4, 2-(5-ethyl-3-(4-fluorophenyl)-4-(4-sulfamoylbenzyl)-1H-pyrazol-1-yl)thiazole-4-carboxylic acid]	++* (5 μM≥++>1 μM)	−* (0.25 μM≥−)	0.25 to 1	0.001 to 0.01	0.01 to 0.1							
NS(=O)(=O)c1ccc(Cc2c(-c3ccccc3)nn(-c3nc(C(=O)O)cs3)c2CC2CC2)cc1F [Example 20, 2-(5-(cyclopropylmethyl)-4-(3-fluoro-4-sulfamoylbenzyl)-3-phenyl-1H-pyrazol-1-yl)thiazole-4-carboxylic acid]				< 0.001	0.001 to 0.01	++++ (++++>10 μM)	− (0.25 μM≥−)	− (0.25 μM≥−)	− (0.25 μM≥−)			< 0.1
CC(C)Oc1cc(-c2nn(-c3nc(C(=O)O)cs3)c(CC3CC3)c2Cc2ccc(S(N)(=O)=O)c(F)c2)ccc1F [Example 7, 2-(5-(Cyclopropylmethyl)-3-(4-fluoro-3-isopropoxyphenyl)-4-(3-fluoro-4-sulfamoylbenzyl)-1H-pyrazol-1-yl)thiazole-4-carboxylic acid]	++* (5 μM≥++>1 μM)	−* (0.25 μM≥−)	0.25 to 1	< 0.001	0.001 to 0.01							
NS(=O)(=O)c1ccc(Cc2c(-c3cc(F)cc(F)c3)nn(-c3nc(C(=O)O)cs3)c2CC2CC2)cc1F [Example 15, 2-(5-(cyclopropylmethyl)-3-(3,5-difluorophenyl)-4-(3-fluoro-4-sulfamoylbenzyl)-1H-pyrazol-1-yl)thiazole-4-carboxylic acid]			< 0.1	< 0.001	0.001 to 0.01	++++ (++++>10 μM)	+ (1 μM≥+>0.25 μM)	− (0.25 μM≥−)	− (0.25 μM≥−)			
N#Cc1cc(-c2nn(-c3nc(C(=O)O)cs3)c(CC3CC3)c2Cc2ccc(S(N)(=O)=O)c(F)c2)ccc1F [Example 2, 2-(3-(3-Cyano-4-fluorophenyl)-5-(cyclopropylmethyl)-4-(3-fluoro-4-sulfamoylbenzyl)-1H-pyrazol-1-yl)thiazole-4-carboxylic acid]				< 0.001	0.001 to 0.01	+++ (10 μM≥+++>5 μM)	− (0.25 μM≥−)	− (0.25 μM≥−)	− (0.25 μM≥−)			< 0.1
NS(=O)(=O)c1ccc(Cc2c(-c3cc(F)c(F)c(F)c3)nn(-c3nc(C(=O)O)cs3)c2CC2CC2)cc1F [Example 28, 2-(5-(Cyclopropylmethyl)-4-(3-fluoro-4-sulfamoylbenzyl)-3-(3,4,5-trifluorophenyl)-1H-pyrazol-1-yl)thiazole-4-carboxylic acid]				< 0.001	0.001 to 0.01	+++ (10 μM≥+++>5 μM)	− (0.25 μM≥−)	− (0.25 μM≥−)	− (0.25 μM≥−)			< 0.1
NS(=O)(=O)c1ccc(Cc2c(-c3cccc(F)c3)nn(-c3nc(C(=O)O)cs3)c2CC2CC2)cc1F [Example 14, 2-(5-(cyclopropylmethyl)-4-(3-fluoro-4-sulfamoylbenzyl)-3-(3-fluorophenyl)-1H-pyrazol-1-yl)thiazole-4-carboxylic acid]			< 0.1	< 0.001	0.001 to 0.01	++++ (++++>10 μM)	+ (1 μM≥+>0.25 μM)	− (0.25 μM≥−)	− (0.25 μM≥−)			
NS(=O)(=O)c1ccc(Cc2c(-c3ccccc3F)nn(-c3nc(C(=O)O)cs3)c2CC2CC2)cc1F [Example 25]				< 0.001	0.01 to 0.1	+++ (10 μM≥+++>5 μM)	− (0.25 μM≥−)	− (0.25 μM≥−)	− (0.25 μM≥−)			0.1 to 0.25
